# Assays:
# [1] = target: T1, human UT-B (Homo sapiens, UniProt Q13336); experiment: Stopped-flow light scattering assay of erythrocyte urea transport, human erythrocytes; type: cell-based; details: urea influx, 100 mM inwardly directed urea gradient
# T1 construct: endogenous in cells; host or cells: erythrocytes in human venous whole blood
# T1 sequence (Q13336 1-389): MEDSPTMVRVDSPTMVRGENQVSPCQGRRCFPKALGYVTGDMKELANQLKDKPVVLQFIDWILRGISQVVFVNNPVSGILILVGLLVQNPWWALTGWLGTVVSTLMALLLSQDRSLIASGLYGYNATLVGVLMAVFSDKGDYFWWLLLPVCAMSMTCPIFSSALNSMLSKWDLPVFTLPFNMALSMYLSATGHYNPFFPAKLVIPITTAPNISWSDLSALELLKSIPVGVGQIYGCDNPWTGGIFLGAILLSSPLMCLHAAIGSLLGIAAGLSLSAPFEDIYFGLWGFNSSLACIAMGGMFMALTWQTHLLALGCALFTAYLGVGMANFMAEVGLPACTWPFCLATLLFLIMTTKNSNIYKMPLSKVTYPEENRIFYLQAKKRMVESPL
# Protocol: Erythrocyte urea and water permeabilities were measured by stopped-flow light scattering using a Hi-Tech Sf-51 instrument (Wiltshire, UK). For measurement of urea permeability, dilutions of whole blood (mouse or human) in PBS (hematocrit ˜0.5%) were incubated with test compounds for 5 min and then subjected to a 100-mM inwardly directed urea gradient. After an initial osmotic shrinking phase, the kinetics of increasing cell volume caused by urea influx was measured as the time-course of 90° scattered light intensity at 530 nm, with increasing cell volume producing reduced scattered light intensity. Urea permeability and percentage inhibition were computed as described (see, e.g., Levin et al., FASEB J. supra, 2007)). In some experiments, different urea gradients (25-200 mM) were used, or inhibitor was added only to the erythrocyte-containing or urea-containing solutions. […] Osmotic water permeability was measured using a 100 mM gradient of sucrose.
# UT-B inhibition potency was assayed quantitatively by stopped-flow light scattering from the kinetics of urea influx in response to an inwardly directed urea gradient (see Materials and Methods above). […]
# Measurements were done using a Hi-Tech Sf-51 instrument (Wiltshire, UK). […] The kinetics of increasing cell volume caused by urea influx was measured as the time-course of 90° scattered light intensity at 530 nm. […]
# [2] = target: T2, TMEM16A (Homo sapiens, UniProt Q5XXA6); experiment: TMEM16A calcium-activated chloride conductance by short-circuit current; type: cell-based; details: 10 μM, ATP-activated
# T2 construct: expressed in transfected cells
# T2 sequence (Q5XXA6 1-986): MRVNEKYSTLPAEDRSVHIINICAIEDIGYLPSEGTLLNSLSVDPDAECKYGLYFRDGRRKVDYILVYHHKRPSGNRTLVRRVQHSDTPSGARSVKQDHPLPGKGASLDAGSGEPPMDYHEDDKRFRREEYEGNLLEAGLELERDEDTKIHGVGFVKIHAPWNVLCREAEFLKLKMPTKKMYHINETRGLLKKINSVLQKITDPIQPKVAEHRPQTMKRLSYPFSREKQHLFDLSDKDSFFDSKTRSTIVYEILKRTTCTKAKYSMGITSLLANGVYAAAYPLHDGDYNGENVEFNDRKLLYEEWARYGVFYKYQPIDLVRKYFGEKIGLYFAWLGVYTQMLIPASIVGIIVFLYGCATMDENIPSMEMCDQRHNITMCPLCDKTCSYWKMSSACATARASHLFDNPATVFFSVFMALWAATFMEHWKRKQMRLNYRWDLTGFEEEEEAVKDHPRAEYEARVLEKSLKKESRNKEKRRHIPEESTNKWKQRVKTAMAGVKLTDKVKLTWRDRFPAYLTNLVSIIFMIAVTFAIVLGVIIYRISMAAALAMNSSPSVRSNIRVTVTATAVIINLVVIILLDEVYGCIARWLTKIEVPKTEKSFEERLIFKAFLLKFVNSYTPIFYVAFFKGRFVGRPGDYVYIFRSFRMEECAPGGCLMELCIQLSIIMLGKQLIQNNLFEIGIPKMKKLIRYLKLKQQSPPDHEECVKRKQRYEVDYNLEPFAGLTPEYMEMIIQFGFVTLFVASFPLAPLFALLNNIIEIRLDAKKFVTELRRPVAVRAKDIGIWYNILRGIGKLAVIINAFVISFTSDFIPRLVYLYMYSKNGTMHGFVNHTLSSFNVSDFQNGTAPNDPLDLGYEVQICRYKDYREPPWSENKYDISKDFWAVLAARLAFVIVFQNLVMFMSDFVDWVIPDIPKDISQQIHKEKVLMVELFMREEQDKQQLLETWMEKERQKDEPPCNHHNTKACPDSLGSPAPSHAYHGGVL
# Protocol: CFTR chloride conductance was measured by short-circuit current analysis in Fisher rat thyroid (FRT) cells stably expressing CFTR, as described (see, e.g., Ma et al., J. Biol. Chem. (2002), supra). CFTR chloride conductance was stimulated by forskolin and inhibited by a thiazolidinone compound that inhibits CFTR (CFTRinh-172). TMEM16A calcium-activated chloride conductance was measured by short-circuit current analysis in FRT cells stably expressing TMEM16A, as described (see, e.g., Namkung et al., J. Biol. Chem. 286:2365-2374, 2011. TMEM16A was stimulated by ATP and inhibited by tannic acid (100 μM). Cytotoxicity was measured in MDCK using the MTT assay [3(4,5-dimethyl-thiazol-2-yl)-2,5-diphenyl tetrazolium bromide] by standard procedures.
# [3] = test system: MDCK cells; experiment: MTT cytotoxicity assay; type: cell-based, canine; details: up to 10 μM, 24 h
# [4] = test system: mice; experiment: Urinary concentration in mice; type: in vivo, mouse; details: 1 week high-protein diet, 300 μg
smiles,measurement,setting,value
"CCc1ccc(S(=O)(=O)c2nnn3c2nc(NCc2cccs2)c2sccc23)cc1 [UTBinh-14, [3-(4-Ethyl-benzenesulfonyl)-thieno[2,3-e][1,2,3]triazolo[1,5-a]pyrimidin-5-yl]-thiophen-2-ylmethylamine]",IC50,[1],10.3 nM
same,inhibition of TMEM16A chloride conductance,[2],no significant inhibition
same,cytotoxicity,[3],no cytotoxicity
same,"effect on dDAVP-stimulated urinary concentration, high-protein diet",[4],robust effect

# — patent US9303042B2, “Triazolothienopyrimidine compound inhibitors of urea transporters and methods of using inhibitors” (The Regents of the University of California, priority 2012, dated 2016)
